Experimental findings from patent US9012413B2, “FGF receptor-activating N-acyl octasaccharides, preparation thereof, and therapeutic use thereof” (Sanofi, priority 2009, dated 2015) are described below.

For data set [1], the system named is BALB/c J mice. The data set is described as follows: Model of cellulose implant in mice (haemoglobin concentration in the implant, angiogenesis). It is filed as in vivo. The protocol:
This model is an adaptation of the model described by Andrade et al. (Microvascular Research, 1997, 54, 253-61) for testing pharmacological products capable of activating the onset of angiogenesis.
The animals (white consanguineous BALB/c J mice) are anaesthetized with a xylazine (Rompun®, 10 mg/kg)/ketamine (Imalgene® 1000, 100 mg/kg) mixture intraperitoneally. The animal's back is shaved and disinfected with Hexomedine®. An air pocket is created subcutaneously on the mouse's back by injecting 5 ml of sterile air. An incision of about 2 cm at the top of the animal's back is made in order to introduce a sterile cellulose implant (disk 1 cm in diameter, 2 mm thick, Cellspon® ref. 0501) impregnated with 50 μl of sterile solution containing the test product. […]
Seven days after inserting the sponge, the mice are sacrificed by means of a lethal dose of pentobarbital sodium (CEVA Santé Animale), administered intraperitoneally. […] On the day of the assay, the tubes are again centrifuged after thawing and the haemoglobin concentration is measured with the Drabkin reagent (Sigma, volume for volume) by reading on a spectrophotometer at 405 nm against a standard range of bovine haemoglobin (Sigma).
The haemoglobin concentration in each sample is expressed in mg/ml from the polynomial regression produced from the range. The results are expressed as a mean value (±sem) for each group. […]

Data set [2] in a line: Pharmacokinetics after cutaneous administration to mice, plasma LC/MS-MS. It is filed as in vivo. The note with it: OF1 or C57/BL6 mice, 30 mg/kg, single administration. The protocol:
The pharmacokinetic profile of the compounds according to the invention is evaluated after cutaneous administration, to OF1 or C57/BL6 mice, at a concentration of 30 mg/kg. The systemic exposure of the compounds is evaluated after a single administration to the animal anaesthetized beforehand with pentobarbital. The blood is collected from the vena cava and then transferred into plastic tubes containing lithium heparin. After centrifugation (2000×g for 10 minutes at 8° C.), the concentration of the compounds in the plasma is quantified by LC/MS-MS.

As for “Methyl (sodium 2-O-sodium sulfonato-α-L-idopyranosyluronate)-(1→4)-(2-acetamido-2-deoxy-6-O-sodium sulfonato-α-D-glucopyranosyl)-[(1→4)-(sodium 2-O-sodium sulfonato-α-L-idopyranosyluronate)-(1→4)-(2-acetamido-2-deoxy-6-O-sodium sulfonato-α-D-glucopyranosyl)]2-(1→4)-(sodium 2-O-sodium sulfonato-α-L-idopyranosyluronate)-(1→4)-2-acetamido-2-deoxy-6-O-sodium sulfonato-α-D-glucopyranoside [Compound 7]”, in data set [1] (BALB/c J mice, subcutaneous cellulose implant, haemoglobin assay after seven days), the “specific activity in the cellulose implant model (active at)” value was found to be 15 ng/site. The “activity relative to the fully sulfated analogue (all —NH-acyl groups replaced with —NH—SO3— groups)” value in data set [1] (cellulose implant in mice) is “greater than 21%”. Moreover, in data set [2] (plasma), the “AUC (0-Clast)” value is recorded as 22 000 ng · h/mL and the T1/2 was 24 min. The “Plasma conc., t = 4 h” value in data set [2] (plasma at 4 hours) is recorded as 425 ng/mL.
